Source: patent publication US9113629B2, “4-amino-6-(4-substituted-phenyl)-picolinates and 6-amino-2-(4-substituted-phenyl)-pyrimidine-4-carboxylates and their use as herbicides” (DOW AGROSCIENCES LLC, priority 2013, dated 2015)
Like-named read-outs stand apart in the source and are kept apart here.

What was measured:
Assay in all cases: Post-emergent Test III, herbicidal activity in wheat and barley
Format in all cases: in vivo
[1] = test system: ALOMY: black-grass (Alopecurus myosuroides); conditions: for pest or weed control at 35 g/ha / pest or weed control at 70 g/ha / pest or weed control at 140 g/ha: Alopecurus myosuroides, post-emergence, 504 h, read-out: Visual Growth Reduction (%) 21 Days After Application ALOMY; for pest or weed control at 35 g/ha: 35 g ai/ha; for pest or weed control at 70 g/ha: 70 g ai/ha; for pest or weed control at 140 g/ha: 140 g ai/ha; for GR50 ALOMY / GR80 ALOMY: probit analysis, 21 days after application; for GR50 ALOMY: dose for growth reduction of 50 percent; for GR80 ALOMY: dose for growth reduction of 80 percent
Method in brief: (§1)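 GR20, GR50, GR80 and GR90 come from probit analysis of visual injury scores (0 = none, 100 = complete kill) taken 21 d after treatment. Foliar application was by track sprayer delivering 187 L/ha at five rates, from high down to 1/16×, onto greenhouse plants at the 2–3 leaf stage, with solvent-blank controls.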

[2] = test system: PAPRH: common poppy (Papaver rhoeas); conditions: for pest or weed control at 35 g/ha / pest or weed control at 70 g/ha / pest or weed control at 140 g/ha: Papaver rhoeas, post-emergence, 504 h, read-out: Visual Growth Reduction (%) 21 Days After Application PAPRH; for pest or weed control at 35 g/ha: 35 g ai/ha; for pest or weed control at 70 g/ha: 70 g ai/ha; for pest or weed control at 140 g/ha: 140 g ai/ha; for GR50 PAPRH / GR80 PAPRH: probit analysis
Method in brief: as §1

[3] = test system: PHAMI: lesser canary grass (Phalaris minor); conditions: for pest or weed control at 35 g/ha / pest or weed control at 70 g/ha / pest or weed control at 140 g/ha: Phalaris minor, post-emergence, 504 h, read-out: Visual Growth Reduction (%) 21 Days After Application PHAMI; for pest or weed control at 35 g/ha: 35 g ai/ha; for pest or weed control at 70 g/ha: 70 g ai/ha; for pest or weed control at 140 g/ha: 140 g ai/ha; for GR50 PHAMI / GR80 PHAMI: probit analysis, 21 days after application; for GR50 PHAMI: dose for growth reduction of 50 percent; for GR80 PHAMI: dose for growth reduction of 80 percent
Method in brief: as §1

[4] = test system: STEME: common chickweed (Stellaria media); conditions: for pest or weed control at 35 g/ha / pest or weed control at 70 g/ha / pest or weed control at 140 g/ha: Stellaria media, post-emergence, 504 h, read-out: Visual Growth Reduction (%) 21 Days After Application STEME; for pest or weed control at 35 g/ha: 35 g ai/ha; for pest or weed control at 70 g/ha: 70 g ai/ha; for pest or weed control at 140 g/ha: 140 g ai/ha; for GR50 STEME / GR80 STEME: probit analysis, 21 days after application; for GR50 STEME: dose for growth reduction of 50 percent; for GR80 STEME: dose for growth reduction of 80 percent
Method in brief: as §1

[5] = test system: CIRAR: Canada thistle (Cirsium arvense); conditions: Table 8, 21 d; for pest or weed control at 35 g/ha / pest or weed control at 70 g/ha: Cirsium arvense, post-emergence, 504 h, post-emergent, read-out: Visual Growth Reduction (%) 21 Days After Application CIRAR; for pest or weed control at 35 g/ha: 35 g ai/ha; for pest or weed control at 70 g/ha: 70 g ai/ha; for GR50 CIRAR: dose for 50 percent growth reduction; for GR50 CIRAR / GR80 CIRAR: probit analysis; for GR80 CIRAR: dose for 80 percent growth reduction
Method in brief: as §1

[6] = test system: GALAP: cleavers (Galium aparine); conditions: Table 8, 21 d; for pest or weed control at 35 g/ha / pest or weed control at 70 g/ha: Galium aparine, post-emergence, 504 h, post-emergent, read-out: Visual Growth Reduction (%) 21 Days After Application GALAP; for pest or weed control at 35 g/ha: 35 g ai/ha; for pest or weed control at 70 g/ha: 70 g ai/ha; for GR50 GALAP: dose for 50 percent growth reduction; for GR50 GALAP / GR80 GALAP: probit analysis; for GR80 GALAP: dose for 80 percent growth reduction
Method in brief: as §1

[7] = dose for growth reduction of 50 percent, 21 days after application
[8] = dose for growth reduction of 80 percent, 21 days after application
[9] = Table 8, dose for 50 percent growth reduction, 21 d
[10] = Table 8, dose for 80 percent growth reduction, 21 d

Compound | pest or weed control at 35 g/ha [1] [%] | pest or weed control at 70 g/ha [1] [%] | pest or weed control at 140 g/ha [1] [%] | GR50 ALOMY [1] [g ai/ha] | GR80 ALOMY [1] [g ai/ha] | pest or weed control at 35 g/ha [2] [%] | pest or weed control at 70 g/ha [2] [%] | pest or weed control at 140 g/ha [2] [%] | GR50 PAPRH [2, 7] [g ai/ha] | GR80 PAPRH [2, 8] [g ai/ha] | pest or weed control at 35 g/ha [3] [%] | pest or weed control at 70 g/ha [3] [%] | pest or weed control at 140 g/ha [3] [%] | GR50 PHAMI [3] [g ai/ha] | GR80 PHAMI [3] [g ai/ha] | pest or weed control at 35 g/ha [4] [%] | pest or weed control at 70 g/ha [4] [%] | pest or weed control at 140 g/ha [4] [%] | GR50 STEME [4] [g ai/ha] | GR80 STEME [4] [g ai/ha] | also measured
Nc1c(F)c(-c2ccc(Cl)c(F)c2)nc(C(=O)O)c1Cl [Compound 217] | 75 to 84 | 85 to 94 | 85 to 94 | 12 | 31 | 95 to 100 | 95 to 100 | 95 to 100 | 1 | 1 | 85 to 94 | 85 to 94 | 85 to 94 | 11 | 30 | 60 to 74 | 75 to 84 | 75 to 84 | 28 | 88 | 
Nc1cc(-c2ccc(Br)c(F)c2F)nc(C(=O)O)c1Cl [Compound 91] | 45 to 59 | 45 to 59 | 45 to 59 | 98 | >140 | 95 to 100 | 95 to 100 | 95 to 100 | 1 | 1 | 30 to 44 | 30 to 44 | 30 to 44 | >140 | >140 | 0 to 29 | 30 to 44 | 45 to 59 | >140 | >140 | 
COC(=O)c1nc(-c2ccc(F)c(F)c2F)c(F)c(N)c1Cl [Compound 186] | 0 to 29 | 0 to 29 | 0 to 29 | >140 | >140 |  |  |  |  |  |  |  |  |  |  |  |  |  |  |  | 
COc1c(N)nc(-c2ccc(Br)c(F)c2)nc1C(=O)O [Compound 113, 6-Amino-2-(4-bromo-3-fluorophenyl)-5-methoxypyrimidine-4-carboxylic acid] |  |  |  |  |  |  |  |  |  |  |  |  |  |  |  |  |  |  |  |  | pest or weed control at 35 g/ha [5]: 75 to 84%; pest or weed control at 70 g/ha [5]: 85 to 94%; GR50 CIRAR [5]: 7 g ai/ha; GR80 CIRAR [5]: 33 g ai/ha; pest or weed control at 35 g/ha [6]: 95 to 100%; pest or weed control at 70 g/ha [6]: 95 to 100%; GR50 GALAP [6]: 5 g ai/ha; GR80 GALAP [6]: 12 g ai/ha; pest or weed control at 35 g/ha ([2]; Table 8, post-emergent, 21 d): 95 to 100%; pest or weed control at 70 g/ha ([2]; Table 8, post-emergent, 21 d): 95 to 100%; GR50 PAPRH [2, 9]: 1 g ai/ha; GR80 PAPRH [2, 10]: 1 g ai/ha
Nc1cc(-c2ccc(Br)c(F)c2)nc(C(=O)O)c1Cl [Compound 110, 4-Amino-6-(4-bromo-3-fluorophenyl)-3-chloropicolinic acid] |  |  |  |  |  |  |  |  |  |  |  |  |  |  |  |  |  |  |  |  | pest or weed control at 35 g/ha [5]: 75 to 84%; pest or weed control at 70 g/ha [5]: 75 to 84%; GR50 CIRAR [5]: 19 g ai/ha; GR80 CIRAR [5]: 52 g ai/ha; pest or weed control at 35 g/ha [6]: 95 to 100%; pest or weed control at 70 g/ha [6]: 95 to 100%; GR50 GALAP [6]: 1 g ai/ha; GR80 GALAP [6]: 1 g ai/ha; pest or weed control at 35 g/ha ([2]; Table 8, post-emergent, 21 d): 95 to 100%; pest or weed control at 70 g/ha ([2]; Table 8, post-emergent, 21 d): 95 to 100%; GR50 PAPRH [2, 9]: 1 g ai/ha; GR80 PAPRH [2, 10]: 1 g ai/ha
COC(=O)c1nc(-c2ccc(F)cc2)c(F)c(N)c1Cl [Compound 204] | 0 to 29 | 45 to 59 | 45 to 59 | 105 | >140 |  |  |  |  |  |  |  |  |  |  |  |  |  |  |  | 
